Drawing on PubChem BioAssay (NCI), this text covers TGI and GI50 for 27 compounds.

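48-hour exposure; five concentrations; linearly interpolated endpoints. Here, GI50 denotes the concentration required for 50% inhibition of growth. TGI marks complete inhibition of growth.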

Holding throughout (experiment): inhibition of tumour cell growth, NCI panel, 48 h
Assay [1] relates to UACC-257 melanoma.
Assay [2] concerns NCI-H226 lung.
In assay [3] the test system is PC-3 prostate.
Assay [4] concerns EKVX NSCLC.
Assay [5] relates to SF-295 CNS.
In assay [6] the test system is MCF7 breast.
Assay [7] has as its system HCC-2998 colon.
In assay [8] the test system is MDA-MB-231 breast.
For assay [9], the system named is SN12C renal.
Assay [10] relates to SK-OV-3 ovarian.
For assay [11], the system named is MDA-N.

For the compound `Cn1ncc2c(Nc3cccc(Cl)c3)nc(Nc3cccc(Cl)c3)nc21`, the TGI in [1] is 25.9 µM; in assay [2] it was above 72.3 µM; in assay [3], 36 µM; in assay [4], 54.8 µM; in [5] it was 21.1 µM; in assay [6], 32.1 µM. The TGI in [7] was 27.6 µM; in assay [8], above 68.3 µM; in assay [9], above 67.5 µM; in assay [10], 54 µM.

For the compound `COC(=O)C1=COC(OC2OC(CO)C(O)C(O)C2O)C2C3CN4CCc5c([nH]c6ccccc56)C4(CC12)O3` (stereo unspecified), the TGI in [1], in assay [2], in [3], in assay [4], in [5] and in assay [6] was above 100 µM each time. Besides, the TGI in assay [8], in assay [11], in [9] and in assay [10] was above 100 µM in each case.

Regarding `Cc1c(Cl)nc(Cl)nc1Cl`, the TGI in assay [1] was 5.67 µM; in assay [2], 8.46 µM; in assay [3], 5.35 µM; in assay [4], 3.82 µM; in assay [5] it was 10.6 µM; in assay [6] it was 2.6 µM. Moreover, the TGI amounted to 2.73 µM in [7]; 2.99 µM in assay [8]; 6.85 µM in assay [11]; 7.53 µM in assay [9]; 11.7 µM in assay [10].

Take `Cc1[nH]c(=O)[nH]c(=O)c1/C=C/C(=O)NC(CO)CS(=O)Cc1ccccc1` (stereo unspecified): the TGI in assay [1], in assay [2], in assay [4], in [5], in assay [6] and in [7] was above 300 µM each time. In addition, the TGI in [9] and in assay [10] was above 300 µM each time.

Consider `c1ccc(C(NC2=NCCO2)c2ccccc2)cc1`, for which the TGI in assay [2], in [3], in assay [4], in assay [5], in assay [6] and in assay [7] was above 10 µM throughout. For the same compound, the TGI in [8], in assay [11], in assay [9] and in assay [10] was above 10 µM each time.

Turning to `CC(C)C(=O)CC(c1ccc(Cl)cc1)N1N=C(C(C)C)CC1c1ccc(Cl)cc1` (stereo unspecified), the TGI in assay [1] is 49.5 µM; in assay [2], above 100 µM; in [4] it was above 100 µM; in [5], above 31.6 µM; in assay [7], above 100 µM; in assay [9], above 100 µM.

In the case of `C=CCN1C[C@H](C)N([C@@H](c2ccc(C(=O)N3CCCCC3)cc2)c2cccc(OC)c2)C[C@H]1C`, the TGI in assay [1] was 50 µM; in [2], above 100 µM; in [3] it was 72.2 µM; in assay [4], above 100 µM; in assay [5], above 100 µM; in [6], above 100 µM. Further, the TGI in assay [7] was 99.5 µM; in assay [8] it was above 100 µM; in [11] it was above 100 µM; in [9] it was above 100 µM; in assay [10] it was above 100 µM.

On to `Cn1ccc(C(=O)NCCN(CCNC(=O)c2ccn(C)c(=O)c2O)CCNC(=O)c2ccn(C)c(=O)c2O)c(O)c1=O`, for which the TGI in assay [1], in [2], in assay [3], in [5], in assay [6] and in assay [7] was above 100 µM each time. In addition, the TGI in assay [8], in assay [11], in assay [9] and in [10] was above 100 µM each time.

For the compound `NNC(=O)CCSc1ccccc1`, the TGI in assay [1], in assay [2], in assay [3], in assay [4], in assay [5] and in assay [6] was above 100 µM throughout. Besides, the TGI in assay [7], in assay [8], in assay [11], in [9] and in assay [10] was above 100 µM throughout.

Turning to `O=c1/c(=C/c2ccc([N+](=O)[O-])o2)sc2n1[C@@H](c1ccc(Cl)cc1)C=C(c1cc(F)c(Cl)cc1Cl)N=2`, the TGI in assay [1] stood at 30.6 µM; in assay [2], 32.4 µM; in assay [3], 32.7 µM; in assay [5] it was 72.4 µM; in [6], 32.2 µM; in [8] it was 18.5 µM. The values for the TGI in [11], in assay [9] and in [10] were 23.3 µM, 19.5 µM and 50.8 µM, respectively.

As for `CN(C)CCCSc1nc2c(c(=N)n1-c1ccccc1)c(=S)n(-c1ccccc1)c(=S)n2-c1ccccc1`, the TGI in [1] was 3.32 µM; in assay [2], 28.4 µM; in [3], 3.14 µM; in [4] it was 3.58 µM; in assay [5] it was 10.6 µM; in assay [6] it was above 100 µM. Also, the TGI in assay [7] amounted to 2.82 µM; in assay [8] it was 3.03 µM; in [11], 3.18 µM; in assay [9] it was 3.18 µM; in assay [10] it was 6.86 µM.

Consider `COc1cc(/C=N\c2nc(-c3ccc(NS(=O)(=O)c4ccc(Cl)c(OC)c4)cc3)cs2)ccc1O`, for which the TGI is above 100 µM in [2]; above 100 µM in assay [3]; above 100 µM in assay [4]; above 100 µM in assay [5]; 56.2 µM in assay [6]; above 100 µM in assay [11]. Moreover, the TGI in assay [9] and in [10] was above 100 µM throughout.

Regarding `COc1ccc(C(O)(c2ccccc2)c2nccc3ccccc23)cc1` (stereo unspecified), the TGI in assay [1] is above 100 µM; in assay [3], above 100 µM; in assay [4] it was 36.9 µM; in assay [5], above 100 µM; in assay [6] it was above 100 µM; in assay [8] it was above 100 µM. In addition, the TGI in assay [11], in [9] and in assay [10] was above 100 µM each time.

As for `Cc1ccc(N=NC(=Nc2ccc(Cl)cc2)c2ccc(N(CCC#N)CCC#N)cc2)cc1`, the TGI in [1] was 76.1 µM; in [2] it was above 100 µM; in assay [3], 92 µM; in assay [4], above 100 µM; in assay [5], above 100 µM; in [6], above 100 µM. Further, the TGI in [7] was 90.1 µM; in assay [8] it was 81.8 µM; in assay [11], above 100 µM; in [9], above 100 µM; in assay [10], above 100 µM.

As for `COc1ccc(-c2cc(-c3ccc(O)cc3O)c(C#N)c(=O)[nH]2)cc1`, the TGI in assay [1] was 70.8 µM; in assay [2], 55.3 µM; in [3], 35.4 µM; in assay [4], 41.6 µM; in assay [5], 34 µM; in assay [6] it was above 100 µM. The TGI in assay [8] was 36.8 µM; in assay [11] it was 32.7 µM; in assay [9], 40.9 µM; in assay [10], 33.8 µM.

On to `Cc1ccc(C(=O)Cn2c(C(=O)/C=C/c3cccs3)nc3ccccc32)cc1`, for which the TGI in assay [1] was above 100 µM; in [2], above 100 µM; in assay [3], above 100 µM; in assay [6], above 100 µM; in assay [7] it was 43.7 µM; in assay [8], above 100 µM. The TGI in [11], in assay [9] and in assay [10] was above 100 µM throughout.

For the compound `Nc1ccc(Oc2ccc(C3(c4ccc(Oc5ccc(N)cc5)cc4)C4CC5CC(C4)CC3C5)cc2)cc1`, the TGI in assay [1] is above 100 µM; in assay [2] it was above 78.4 µM; in [3] it was above 52.9 µM; in assay [4], above 81.4 µM; in [5], 73.8 µM; in [6] it was above 52.7 µM. In addition, the TGI is 37.6 µM in assay [8], 40.4 µM in assay [11] and 21.9 µM in assay [9].

As to `Cc1c2c(OCC(O)CN3CCN(c4ccccc4)CC3)nn(C)c(=O)c2c(C)n1-c1ccccc1` (stereo unspecified), the TGI was 72.1 µM in [1]; 54.5 µM in assay [2]; 55.9 µM in assay [3]; above 100 µM in assay [4]; 51.3 µM in assay [5]; 36.5 µM in assay [6]. The TGI in [7] was 78.3 µM; in assay [8], 69.6 µM; in assay [11], 35.4 µM; in assay [9], 36.5 µM; in [10], above 100 µM.

For the compound `CC(=O)O[C@@H]1C(=O)N(c2ccccc2)[C@@H]1c1cc2ccccc2c2ccccc12`, the TGI in assay [1], in assay [2], in assay [3], in assay [4], in [5] and in assay [6] was above 100 µM in each case. Further, the TGI is 61.2 µM in [7]; 75.1 µM in assay [8]; above 100 µM in assay [11]; above 100 µM in assay [9]; above 100 µM in [10].

`O=C(Nc1ccc(-n2cc(-c3ccncc3)c(-c3ccc(O)c(Cl)c3)n2)cc1)Nc1ccc(Cl)c(C(F)(F)F)c1`: the GI50 is 7.42 µM in assay [1]; 21.4 µM in assay [2]; 2.49 µM in assay [3]; 3.21 µM in assay [4]; 2.99 µM in assay [5]; 3.06 µM in [6]. Moreover, the GI50 in [7] was 4.65 µM; in assay [8], 3.2 µM; in [9], 4.28 µM. Moreover, the TGI in [1] turned out to be 30.8 µM; in [2], 51.8 µM; in [3] it was 8.74 µM; in assay [4] it was 25.4 µM; in assay [5], 14.6 µM; in assay [6], 13.4 µM. In addition, the TGI in assay [7] stood at 20.1 µM; in assay [8], 12.5 µM; in [9], 17.2 µM.

Regarding `O=[N+]([O-])c1ccc(Oc2c(Cl)cc(S(=O)(=O)/N=C(\NO)Nc3ccc(Cl)cc3)cc2Cl)c(Cl)c1`, the TGI came out at 30.8 µM in assay [1]; 48.3 µM in assay [2]; 26.7 µM in [3]; 28 µM in assay [4]; 31.1 µM in [5]; 34 µM in assay [6]. Besides, the TGI was 31.2 µM in assay [7], 36.7 µM in assay [8], 28.9 µM in assay [11] and 27.4 µM in assay [9].

With `CCOC(=O)C(Cc1cn(C(C)=O)c2ccccc12)P(=O)(OCC)OCC` (stereo unspecified), the TGI in assay [1], in [2], in [3], in [5], in assay [7] and in assay [8] was above 100 µM each time. Further, the TGI in assay [11], in assay [9] and in [10] was above 100 µM each time.

Take `C/C(=N\NC(=S)NCCCCNC(=S)N/N=C(\C)c1ccccn1)c1ccccc1`: the TGI in [1] is 9.64 µM; in assay [2], above 23.6 µM; in [3] it was above 100 µM; in [4] it was above 100 µM; in assay [5], above 37.6 µM; in [7] it was above 100 µM. In addition, the TGI in assay [8] was above 52.7 µM; in [11] it was above 100 µM; in assay [9] it was 4.43 µM; in assay [10], 38.9 µM.

As to `COc1cc2c(cc1OCCCOS(C)(=O)=O)N=C[C@@H]1CCCN1C2=O`, the TGI in assay [1], in assay [2], in [4], in assay [5], in assay [6] and in assay [7] was above 100 µM throughout. Further, the TGI in assay [8], in assay [9] and in assay [10] was above 100 µM in each case.

Turning to `N#CCCN(CCC#N)c1ccc(/C=C(\NC(=O)c2cc([N+](=O)[O-])ccc2Cl)C(=O)Nc2ccccc2)cc1`, the TGI in [2], in assay [4], in assay [5], in assay [9] and in assay [10] was above 100 µM in each case.

On to `C/C(=N\NC(=S)N(C)C)c1nc2ncccc2[nH]1`, for which the TGI was 64.5 µM in [1]; 2.05 µM in [2]; above 100 µM in assay [3]; above 100 µM in [4]; above 100 µM in [6]; above 100 µM in assay [8]. Moreover, the figures for the TGI in assay [11], in assay [9] and in [10] were above 100 µM, above 100 µM and 5.53 µM, respectively.

For the compound `CCCn1cc2c(SC)nc(SC)nc2n1`, the TGI in assay [1], in assay [2], in assay [4], in [5], in assay [7] and in assay [9] was above 100 µM each time.
